Values joined by “and” are separate entries in the source; they are usually repeats but may differ in a detail not shown here. Equal values may be shown once. One block for each molecule: values may come before it.
System: 282377-053-R-J1-PDC tumor spheroids, viability
Assay: Anticancer human tumor 282377-053-R-J1-PDC patient-derived colon adenocarcinoma cell line growth inhibition [TAK]
Conditions: spheroids with HUVEC and MSC; for viability, T/C: stronger effect = lower value
Source text: Combinatorial screen of targeted agents with TAK-243 and ipatasertib in multi-cell type tumor spheroids
A high-throughput screen of multi-cell type tumor spheroids was designed to identify active combinations of targeted small molecules and TAK-243 or ipatasertib. Complex spheroids include a stromal component modeled by human endothelial cells (HUVEC) and fibroblasts modeled by human mesenchymal stem cells (MSCs). The concentration ranges selected for each drug and investigational agent were based upon clinically achievable concentrations if the clinical Cmax of the agent was known.
Compounds. The drugs and investigational agents: TAK-243 (785004), ipatasertib (767898), everolimus (733504), selumetinib (741078), bortezomib (756655), trametinib (758246), ixazomib (758254), vemurafenib (761431), dabrafenib (764134), sapanisertib (764658), alpelisib (765974), and copanlisib (816437), were obtained from the National Cancer Institute (NCI) Developmental Therapeutics Program Chemical Repository. The FDA-approved anticancer drug set is available from the NCI Developmental Therapeutics Program. […] The stock solutions were prepared in dimethyl sulfoxide (DMSO, Sigma-Aldrich, St. Louis, MO, cat. D2650) at 800-fold the tested concentration and stored at -70 degrees C prior to their use. All drugs and investigational agents were tested over a range starting from a high concentration at or near the clinical Cmax and decreasing in half-log increments. If the clinical Cmax for an agent had not been determined, the highest concentration tested was 10 microM.
NCI60 Cell Culture. NCI60 cell lines were obtained from the NCI Developmental Therapeutics Program Tumor Repository. For each lot of cells, the Repository performed Applied Biosystems AmpFLSTR Identifiler testing with PCR amplification to confirm consistency with the published Identifier STR profile for each cell line. Cells were kept in continuous culture for no more than 20 passages. The optimal seeding densities for each of the cell lines at each time point assessed were determined prior to performing the concentration response studies. Briefly, the NCI60 human tumor lines were grown as monolayers in RPMI 1640 medium supplemented with 10% FBS and 2 mmol/L L-glutamine.
An additional 2 lines were from the NCI60 cell line panel including melanomas, MALME-3M and SK-MEL-2. Pooled donor human umbilical vein endothelial cells (HUVEC, Lonza, cat. CC-2519) and human mesenchymal stem cells (hMSC, Lonza, cat. PT-2501) were purchased from Lonza (Walkersville, MD).
PDMR cell lines were grown in complete medium (DC medium): Dulbecco's modified Eagle's medium (DMEM)/F12 supplemented with 5% fetal bovine serum (FBS), 2 mM L-glutamine, 100 U/mL penicillin and 100 µg/ml streptomycin, 0.4 µg/ml hydrocortisone, 10 ng/ml epidermal growth factor (EGF) recombinant human protein, 24 µg/mL adenine, and 0.1 mg/mL primocin. During culture from frozen stock vials, PDMR cells were cultured in the same medium containing 10 µM Y-27632 (see Table 3). The PDCs were cultured in complete DMEM/F12 media without 10 microM Y-27632 dihydrochloride for at least two passages prior to the screen. The pooled donor HUVEC and hMSC were cultured in endothelial cell growth medium 2 (PromoCell, Heidelberg, Germany, cat. C-22011) and mesenchymal stem cell growth medium 2 (PromoCell, cat. C-28009), respectively. For all experiments, HUVEC and hMSC were used at passages </=5.
For the pre-screen, cell seeding densities were determined from a titration spanning the range from 5,000 to 313 cells per well. The mct-spheroids including 60% malignant cells, 25% HUVEC and 15% MSC dispensed as a mixture into U-bottom Ultra-Low Attachment 384-well plates (Corning, NY)
High-throughput Drug Combination Screening.
Prior to their inoculation into 384-well plates, malignant cells, HUVEC, and hMSC were removed from T flasks using TrypLE express (Thermo Fisher Scientific, cat. 12605036) and harvested by centrifugation for 5 min at 233 x g. […]

[1] = curve of first compound, second compound 0.3 µM
[2] = curve of first compound, second compound 0.949 µM
[3] = curve of first compound, second compound 3 µM
[4] = curve of first compound, second compound 9.49 µM
[5] = curve of first compound, second compound 30 µM
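Also: spheroids exposed to drugs for seven days before readout.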

IC50 (curve of compound): > 100000 nM
SMILES: CCCS(=O)(=O)Nc1ccc(F)c(C(=O)c2c[nH]c3ncc(-c4ccc(Cl)cc4)cc23)c1F
viability, T/C (compound 0.316 µM): 86.4% and 86.2%
viability, T/C (compound 1 µM): 82.3% and 82.7%
viability, T/C (compound 3.16 µM): 82.7% and 85.6%
viability, T/C (compound 10 µM): 21.3% and 27%
viability, T/C (compound 31.6 µM): 89.4% and 84.6%
viability, T/C (compound 100 µM): 75.5% and 94%

SMILES: CC(C)CC(NC(=O)C(Cc1ccccc1)NC(=O)c1cnccn1)B(O)O (configuration not stated) + CC(C)NCC(C(=O)N1CCN(c2ncnc3c2C(C)CC3O)CC1)c1ccc(Cl)cc1
IC50 [1]: > 10 nM
IC50 [2]: > 10 nM
IC50 [3]: > 10 nM
IC50 [4]: 7.5 nM
IC50 [5]: 7.96 nM
viability, T/C (second compound 0.3 µM, first compound 31.6 pM): 105%
viability, T/C (second compound 0.3 µM, first compound 0.0001 µM): 96%
viability, T/C (second compound 0.3 µM, first compound 0.000316 µM): 97.5%
viability, T/C (second compound 0.3 µM, first compound 0.001 µM): 98.3%
viability, T/C (second compound 0.3 µM, first compound 0.00316 µM): 98.5%
viability, T/C (second compound 0.3 µM, first compound 0.01 µM): 80.8%
viability, T/C (second compound 0.949 µM, first compound 31.6 pM): 93%
viability, T/C (second compound 0.949 µM, first compound 0.0001 µM): 90.7%
viability, T/C (second compound 0.949 µM, first compound 0.000316 µM): 92.5%
viability, T/C (second compound 0.949 µM, first compound 0.001 µM): 101%
viability, T/C (second compound 0.949 µM, first compound 0.00316 µM): 93.1%
viability, T/C (second compound 0.949 µM, first compound 0.01 µM): 56.5%
viability, T/C (second compound 3 µM, first compound 31.6 pM): 90.2%
viability, T/C (second compound 3 µM, first compound 0.0001 µM): 84.2%
viability, T/C (second compound 3 µM, first compound 0.000316 µM): 87.7%
viability, T/C (second compound 3 µM, first compound 0.001 µM): 86.6%
viability, T/C (second compound 3 µM, first compound 0.00316 µM): 78.8%
viability, T/C (second compound 3 µM, first compound 0.01 µM): 51.1%
viability, T/C (second compound 9.49 µM, first compound 31.6 pM): 83.2%
viability, T/C (second compound 9.49 µM, first compound 0.0001 µM): 83.7%
viability, T/C (second compound 9.49 µM, first compound 0.000316 µM): 83.8%
viability, T/C (second compound 9.49 µM, first compound 0.001 µM): 79.9%
viability, T/C (second compound 9.49 µM, first compound 0.00316 µM): 78.6%
viability, T/C (second compound 9.49 µM, first compound 0.01 µM): 40.6%
viability, T/C (second compound 30 µM, first compound 31.6 pM): 69.2%
viability, T/C (second compound 30 µM, first compound 0.0001 µM): 71.3%
viability, T/C (second compound 30 µM, first compound 0.000316 µM): 72.7%
viability, T/C (second compound 30 µM, first compound 0.001 µM): 68.5%
viability, T/C (second compound 30 µM, first compound 0.00316 µM): 65.3%
viability, T/C (second compound 30 µM, first compound 0.01 µM): 46.2%

SMILES: Cc1nc(NC(=O)N2CCCC2C(N)=O)sc1-c1ccnc(C(C)(C)C(F)(F)F)c1 (configuration not stated) + CC(C)NCC(C(=O)N1CCN(c2ncnc3c2C(C)CC3O)CC1)c1ccc(Cl)cc1
IC50 [1]: > 10000 nM
IC50 [2]: > 10000 nM
IC50 [3]: > 10000 nM
IC50 [4]: > 10000 nM
IC50 [5]: 5510 nM
viability, T/C (second compound 0.3 µM, first compound 0.0316 µM): 99.7%
viability, T/C (second compound 0.3 µM, first compound 0.1 µM): 91.4%
viability, T/C (second compound 0.3 µM, first compound 0.316 µM): 91.7%
viability, T/C (second compound 0.3 µM, first compound 1 µM): 89.8%
viability, T/C (second compound 0.3 µM, first compound 3.16 µM): 79.8%
viability, T/C (second compound 0.3 µM, first compound 10 µM): 70.4%
viability, T/C (second compound 0.949 µM, first compound 0.0316 µM): 87.2%
viability, T/C (second compound 0.949 µM, first compound 0.1 µM): 91.5%
viability, T/C (second compound 0.949 µM, first compound 0.316 µM): 84%
viability, T/C (second compound 0.949 µM, first compound 1 µM): 81%
viability, T/C (second compound 0.949 µM, first compound 3.16 µM): 79.1%
viability, T/C (second compound 0.949 µM, first compound 10 µM): 81.3%
viability, T/C (second compound 3 µM, first compound 0.0316 µM): 83.5%
viability, T/C (second compound 3 µM, first compound 0.1 µM): 83.9%
viability, T/C (second compound 3 µM, first compound 0.316 µM): 80%
viability, T/C (second compound 3 µM, first compound 1 µM): 77.3%
viability, T/C (second compound 3 µM, first compound 3.16 µM): 76.3%
viability, T/C (second compound 3 µM, first compound 10 µM): 77.3%
viability, T/C (second compound 9.49 µM, first compound 0.0316 µM): 81.7%
viability, T/C (second compound 9.49 µM, first compound 0.1 µM): 81%
viability, T/C (second compound 9.49 µM, first compound 0.316 µM): 76.1%
viability, T/C (second compound 9.49 µM, first compound 1 µM): 75.8%
viability, T/C (second compound 9.49 µM, first compound 3.16 µM): 69.6%
viability, T/C (second compound 9.49 µM, first compound 10 µM): 64%
viability, T/C (second compound 30 µM, first compound 0.0316 µM): 71.7%
viability, T/C (second compound 30 µM, first compound 0.1 µM): 69.8%
viability, T/C (second compound 30 µM, first compound 0.316 µM): 66.4%
viability, T/C (second compound 30 µM, first compound 1 µM): 58%
viability, T/C (second compound 30 µM, first compound 3.16 µM): 56.1%
viability, T/C (second compound 30 µM, first compound 10 µM): 45.1%

Source: PubChem BioAssay AID2060360 (Molecular Pharmacology Branch, DTP, NCI, 2025)
